{"source": "paper PMC9209526", "about": "(Nature Communications, 2022)", "biological_target": "T1, N4posG321V (Abl kinase domain hinge mutant) (Homo sapiens, UniProt P00519, G321V)", "T1 construct": "His10-TEV (N, cleaved yes); made in house; host or cells: E. coli BL21(DE3)pLysS, co-expressed with YopH phosphatase", "T1 sequence (P00519 229-512 G321V)": "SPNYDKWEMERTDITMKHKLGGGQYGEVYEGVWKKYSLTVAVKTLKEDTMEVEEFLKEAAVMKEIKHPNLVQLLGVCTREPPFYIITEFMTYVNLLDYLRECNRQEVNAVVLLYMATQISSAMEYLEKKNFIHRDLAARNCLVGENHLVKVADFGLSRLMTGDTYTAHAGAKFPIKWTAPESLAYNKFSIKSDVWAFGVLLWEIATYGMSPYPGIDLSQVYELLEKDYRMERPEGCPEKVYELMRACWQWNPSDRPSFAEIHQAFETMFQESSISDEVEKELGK", "assay": "ClyA-AS nanopore tweezers single-channel current recording: ligand binding to N4posG321V", "conditions": "1 mM ATP or ATPγS with 10 mM MgCl2; -80 mV", "data": [{"smiles": "Nc1ncnc2c1ncn2[C@@H]1O[C@H](CO[P@](=O)(O)O[P@](=O)(O)O[P@@](=O)(O)S)[C@@H](O)[C@H]1O", "note": "[ATPγS]", "values": [{"measurement": "effect on N4posG321V current trace", "value": "did not trigger any change in the current trace"}]}]}
